Laboratory results: patent US6448405B1, “Steroid receptor modulator compounds and methods” (Ligand Pharmaceuticals Incorporated, priority 1994, dated 2002)
Like-named read-outs stand apart in the source and are kept apart here.

Columns and labels:
human PR-B = biological target: T1, human PR-B (Homo sapiens, UniProt P06401); test: Co-transfection assay, PR agonist and antagonist activity, CV-1 cells; assay type: cell-based; details: for EC50: read-out: PR Agonist CV-1 Cells Potency;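 on all read-outs here: luciferase reporter driven by a hormone response element, co-transfected with human PR-B into CV-1 monkey kidney cells, agonists raise and antagonists lower the reporter signal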
T1 construct: expressed in transfected cells; host or cells: CV-1 cells (African green monkey kidney fibroblasts), transient transfection
T1 sequence (P06401 1-933): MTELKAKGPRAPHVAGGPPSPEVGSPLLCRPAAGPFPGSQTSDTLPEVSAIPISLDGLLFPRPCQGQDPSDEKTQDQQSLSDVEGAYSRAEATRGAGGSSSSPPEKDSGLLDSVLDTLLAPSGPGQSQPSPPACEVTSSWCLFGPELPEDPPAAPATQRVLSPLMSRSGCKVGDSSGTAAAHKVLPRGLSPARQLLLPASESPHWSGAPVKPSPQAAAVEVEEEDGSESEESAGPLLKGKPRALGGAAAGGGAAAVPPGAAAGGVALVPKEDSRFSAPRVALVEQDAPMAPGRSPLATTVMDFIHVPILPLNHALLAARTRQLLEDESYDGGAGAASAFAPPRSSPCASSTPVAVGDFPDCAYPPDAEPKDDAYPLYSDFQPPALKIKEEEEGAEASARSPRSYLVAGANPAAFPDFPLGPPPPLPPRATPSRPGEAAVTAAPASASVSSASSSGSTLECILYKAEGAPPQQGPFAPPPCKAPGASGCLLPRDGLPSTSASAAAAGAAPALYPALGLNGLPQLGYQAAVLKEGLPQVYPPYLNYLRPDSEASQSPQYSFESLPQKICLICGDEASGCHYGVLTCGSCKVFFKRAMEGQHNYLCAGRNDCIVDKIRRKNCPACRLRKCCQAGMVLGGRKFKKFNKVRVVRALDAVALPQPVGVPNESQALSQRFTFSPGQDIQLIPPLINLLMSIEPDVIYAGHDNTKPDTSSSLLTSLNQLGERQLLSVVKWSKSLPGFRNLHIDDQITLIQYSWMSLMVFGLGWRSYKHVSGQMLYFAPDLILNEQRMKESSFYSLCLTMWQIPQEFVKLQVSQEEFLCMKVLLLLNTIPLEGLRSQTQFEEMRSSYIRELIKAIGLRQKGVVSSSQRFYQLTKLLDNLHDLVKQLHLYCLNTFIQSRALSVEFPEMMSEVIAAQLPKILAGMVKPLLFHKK

[1] = biological target: T2, human progesterone receptor A form (PR-A) (Homo sapiens, UniProt P06401); test: PR binding assay, baculovirus extract, [3H] progesterone
T2 sequence (P06401 1-769 isoform P06401-2): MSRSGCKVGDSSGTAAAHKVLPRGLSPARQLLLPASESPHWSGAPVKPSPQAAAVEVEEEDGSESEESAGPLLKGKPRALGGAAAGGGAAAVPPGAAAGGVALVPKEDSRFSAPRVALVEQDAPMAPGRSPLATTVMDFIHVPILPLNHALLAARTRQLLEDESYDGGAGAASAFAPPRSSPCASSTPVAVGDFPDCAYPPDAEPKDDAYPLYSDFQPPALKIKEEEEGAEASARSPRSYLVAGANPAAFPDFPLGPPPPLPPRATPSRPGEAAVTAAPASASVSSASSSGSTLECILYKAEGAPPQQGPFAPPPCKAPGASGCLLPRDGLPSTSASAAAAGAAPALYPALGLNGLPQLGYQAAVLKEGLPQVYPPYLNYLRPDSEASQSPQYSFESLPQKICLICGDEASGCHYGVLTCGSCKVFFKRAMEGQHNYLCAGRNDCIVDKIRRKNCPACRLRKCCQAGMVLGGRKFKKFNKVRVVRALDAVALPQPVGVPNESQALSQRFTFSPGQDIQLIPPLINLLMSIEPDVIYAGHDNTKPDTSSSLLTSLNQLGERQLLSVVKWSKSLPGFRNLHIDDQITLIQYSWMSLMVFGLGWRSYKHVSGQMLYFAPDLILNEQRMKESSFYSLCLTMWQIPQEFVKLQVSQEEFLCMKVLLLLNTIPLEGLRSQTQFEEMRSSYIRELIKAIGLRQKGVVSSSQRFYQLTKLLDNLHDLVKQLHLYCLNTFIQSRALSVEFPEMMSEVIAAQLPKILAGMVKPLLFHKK

[2] = biological target: T3, human androgen receptor (AR) (Homo sapiens, UniProt P10275); test: Co-transfection assay, AR agonist and antagonist activity, CV-1 cells (pRShAR); assay type: cell-based; details: for AR Agonist CV-1 Cells Efficacy (%): agonist mode, relative to DHT; for AR Antagonist CV-1 Cells Efficacy (%): % maximal inhibition
T3 construct: expressed in transfected cells; host or cells: CV-1 cells, transient transfection
T3 sequence (P10275 1-920): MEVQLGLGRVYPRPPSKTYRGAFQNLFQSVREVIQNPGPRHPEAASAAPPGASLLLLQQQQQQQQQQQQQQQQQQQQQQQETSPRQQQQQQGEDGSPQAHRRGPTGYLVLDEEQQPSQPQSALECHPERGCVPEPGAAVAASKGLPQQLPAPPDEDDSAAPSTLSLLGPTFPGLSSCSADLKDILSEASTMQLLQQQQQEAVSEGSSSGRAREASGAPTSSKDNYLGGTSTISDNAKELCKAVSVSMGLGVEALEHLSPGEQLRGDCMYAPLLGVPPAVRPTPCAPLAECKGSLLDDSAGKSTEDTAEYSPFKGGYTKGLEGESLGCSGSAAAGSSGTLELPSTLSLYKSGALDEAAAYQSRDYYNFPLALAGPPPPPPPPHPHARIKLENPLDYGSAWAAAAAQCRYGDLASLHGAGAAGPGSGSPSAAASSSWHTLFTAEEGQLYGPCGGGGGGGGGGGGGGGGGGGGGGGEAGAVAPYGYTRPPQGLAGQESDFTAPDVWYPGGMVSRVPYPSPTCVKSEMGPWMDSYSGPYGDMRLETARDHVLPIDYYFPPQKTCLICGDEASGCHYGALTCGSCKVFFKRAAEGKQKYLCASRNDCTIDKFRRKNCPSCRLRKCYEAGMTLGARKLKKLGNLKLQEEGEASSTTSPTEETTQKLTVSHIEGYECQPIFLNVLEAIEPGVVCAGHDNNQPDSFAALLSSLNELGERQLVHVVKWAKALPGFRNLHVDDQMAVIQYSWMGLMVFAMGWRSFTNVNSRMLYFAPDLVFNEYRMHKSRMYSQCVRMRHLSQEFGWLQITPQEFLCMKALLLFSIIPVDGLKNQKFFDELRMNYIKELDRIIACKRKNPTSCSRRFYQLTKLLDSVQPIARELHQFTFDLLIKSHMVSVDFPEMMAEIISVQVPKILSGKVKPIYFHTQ

[3] = agonist mode, percent maximal response relative to reference agonist progesterone
[4] = antagonist mode, progesterone at its EC50, % maximal inhibition
[5] = read-out: PR Antagonist CV-1 Cells Potency

Molecule | PR Agonist CV-1 Cells Efficacy (%) (human PR-B) | PR Antagonist CV-1 Cells Efficacy (%) (human PR-B) | AR Agonist CV-1 Cells Efficacy (%) ([2]; Table 2) | AR Antagonist CV-1 Cells Efficacy (%) ([2]; Table 2, antagonist mode) | other results
CC1=CC(C)(C)Nc2ccc3c(c21)C(C)Oc1ccc(Cl)cc1-3 (racemic) [Compound 332, (R/S)-9-Chloro-1,2-dihydro-2,2,4,5-tetramethyl-5H-chromeno[3,4-f]quinoline] | 138% | na (na = not active (i.e. efficacy or <20 and potency of >10,000)) | – | – | –
C[C@H]1C(=O)C(C)(C)Nc2ccc3c(c21)O[C@H](c1ccccc1)c1ccccc1-3 (relative stereo) [Compound 391, (R/S-4l,6l)-1,2,3,4-Tetrahydro-2,2,4-trimethyl-6-phenyl-5H-isochromeno[3,4-f]-3-quinolinone] | – | – | – | – | PR Agonist CV-1 Cells Efficacy (%) (human PR-B; [3]): na (na = not active (i.e. efficacy or <20 and potency of >10,000)); PR Antagonist CV-1 Cells Efficacy (%) (human PR-B; [4]): 65%
CC1=CC(C)(C)Nc2ccc3c(c21)/C(=C/c1ccccc1)Oc1ccccc1-3 [Compound 220, (Z)-5-Benzylidene-1,2-dihydro-2,2,4-trimethyl-5H-chromeno[3,4-f]quinoline] | – | na (key: na = not active (i.e. efficacy or <20 and potency of >10,000)) | – | – | IC50 (human PR-B): > 10000 nM; EC50 (human PR-B; agonist mode): 33 nM; Ki [1]: 1 nM
CC1=CC(C)(C)Nc2c(F)cc(-c3cccc([N+](=O)[O-])c3)cc21 [Compound 291, 8-Fluoro-1,2-dihydro-2,2,4-trimethyl-6-(3-nitrophenyl)quinoline] | na (na = not active (i.e. efficacy or <20 and potency of >10,000)) | 79% | – | – | EC50 (human PR-B; agonist mode): > 10000 nM; IC50 (human PR-B; [5]): 46 nM; Ki ([1]; read-out: PR Binding Ki): 4 nM
CC1=CC(C)(C)Nc2cc3[nH]c(=O)cc(C(F)(F)F)c3cc21 [Compound 247, 1,2-Dihydro-2,2,4-trimethyl-6-trifluoromethyl-8-pyridono[5,6-g]quinoline] | – | – | 23% | 69 | –
CCCO[C@@H]1[C@@H](C)c2c(ccc3c2[C@H](c2ccc(Cl)cc2)Oc2ccccc2-3)NC1(C)C (racemic) [Compound 400, (R/S-3l,4u,5u)-5-(4-Chlorophenyl)-1,2,3,4-tetrahydro-3-propyloxy-2,2,4-trimethyl-5H-chromeno[3,4-f]quinoline] | na (na = not active (i.e. efficacy or <20 and potency of >10,000)) | 68% | – | – | EC50 (human PR-B; agonist mode): > 10000 nM; IC50 (human PR-B; [5]): 370 nM; Ki ([1]; read-out: PR Binding Ki): 14 nM
CCCCC1Oc2ccccc2-c2ccc3c(c21)C(C)C(O)(CCCC)C(C)(C)N3 (racemic) [Compound 385, (R/S)-3,5-Dibutyl-1,2,3,4-tetrahydro-3-hydroxy-2,2,4-trimethyl-5H-chromeno[3,4-f]quinoline] | 27% | 45% | – | – | EC50 (human PR-B; agonist mode): 82 nM; IC50 (human PR-B; [5]): 2300 nM; Ki ([1]; read-out: PR Binding Ki): 31 nM
CC1C(=O)C(C)(C)Nc2ccc3c(c21)C(c1ccc(Cl)cc1)Oc1ccccc1-3 (single isomer, unassigned; (+)) [Compound 381, (+)-(R*-4l,5l)-5-(4-Chlorophenyl)-1,2,3,4-tetrahydro-2,2,4-trimethyl-5H-chromeno[3,4-f]-3-quinolinone] | – | na (na = not active (i.e. efficacy or <20 and potency of >10,000)) | – | – | –
CC1(C)CNc2cc3[nH]c(=O)cc(C(F)(F)F)c3cc2C1 [Compound 437, 1,2,3,4-Tetrahydro-3,3-dimethyl-6-trifluoromethyl-8-pyridono[5,6-g]quinoline] | – | – | na (na = not active (i.e. efficacy of <20 and potency of >10,000)) | 72 | AR Agonist CV-1 Cells Efficacy (%) [2]: na (na = not active (i.e. efficacy of <20 and potency of >10,000)); activity as AR antagonists compared with 2-OH-flutamide ([2]; antagonist mode): equivual or better activity
8-Bromo-12-dihydro-2,2,4-trimethylindeno[1,2-]quinoline [Compound 117] | – | – | – | – | PR Agonist CV-1 Cells Efficacy (%) (human PR-B; [3]): na (na = not active (i.e. efficacy or <20 and potency of >10,000)); PR Antagonist CV-1 Cells Efficacy (%) (human PR-B; [4]): 68%
(R/S)-4-Ethyl-1,2,3,4-tetrahydro-1-methyl-8-pyranono[5,6-g]quinoline [Compound 416] | – | – | 88% | 24 | AR Agonist CV-1 Cells Efficacy (%) [2]: 88%; AR Antagonist CV-1 Cells Efficacy (%) ([2]; antagonist mode, DHT at its EC50): 24%
8-(4-Chlorobenzoyl)-5-trifluoromethyl-7-pyridono[5,6-e]indoline [Compound 420] | – | – | 40% | 80 | –
CC1=CC(C)(C)Nc2ccc(-c3cc(F)cc(C#N)c3)cc21 [Compound 271, 6-(3-Cyano-5-fluorophenyl)-1,2-dihydro-2,2,4-trimethylquinoline] | na (na = not active (i.e. efficacy or <20 and potency of >10,000)) | 78% | – | – | –
O=c1cc(C(F)(F)F)c2cc3c(cc2[nH]1)NCC3 [Compound 419, 5-Trifluoromethyl-7-pyridono[5,6-e]indoline] | – | – | 29% | 74 | –
